Experimental data published in PubChem BioAssay AID1671332.

Target: Serine/threonine-protein kinase Nek7 (Homo sapiens) (UniProt Q8TDX7)
Assay: inhibition of NEK7 serine/threonine kinase activity – biochemical, Z'-LYTE FRET, direct format, recombinant human, dose response (AID 1671332)

Serine/threonine-protein kinase Nek7 (Homo sapiens), sequence (Q8TDX7 whole entry, looked up): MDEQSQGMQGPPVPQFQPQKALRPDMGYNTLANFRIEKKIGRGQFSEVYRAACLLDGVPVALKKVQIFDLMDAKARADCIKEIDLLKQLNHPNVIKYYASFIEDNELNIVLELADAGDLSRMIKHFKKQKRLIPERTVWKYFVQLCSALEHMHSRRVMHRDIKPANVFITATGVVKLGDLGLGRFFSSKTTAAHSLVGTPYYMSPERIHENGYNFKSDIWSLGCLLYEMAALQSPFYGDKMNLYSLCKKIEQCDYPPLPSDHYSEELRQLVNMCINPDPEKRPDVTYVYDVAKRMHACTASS

SMILES: CN1C(=O)C2(Cc3cn(C45CC67SSC(CO)(C(=O)N6C4Nc4ccccc45)N(C)C7=O)c4ccccc34)SSC1(CO)C(=O)N2C (stereo unspecified)
- IC50: 274 nM
